Experimental findings from patent EP2954896A1, “Small molecule inhibitors of the E3 Ligase Skp2 in depression and other diseases” (Max-Planck-Gesellschaft zur Förderung der Wissenschaften …, priority 2014, dated 2015) are described below.

The subject of one data set is Beclin1 mRNA. The data set can be described thus: Beclin1 mRNA expression by qPCR in rat cortical astrocytes. It counts as cell-based. The following applies: 10µM for 72h; vehicle set to 1. The protocol: Enriched astroglial cultures were prepared from postnatal day 1 rat pups (Sprague-Dawley, Charles River, Sulzfeld, Germany) and handled as described by Attwood BK et al. (2011) Nature 473: 372-375 and Hartmann J et al. (2012) Neuropharmacology 62: 332-339.
Total RNA was isolated from astroglial cells according to the manufacturer's protocol of NucleoSpin RNA II (Macherey-Nagel, Germany). In total, 300 ng of purified RNA was reverse transcribed using random primers (Promega) and Omniscript® Reverse Transcriptase (Qiagen). Based on the LightCycler® System (Roche Applied Science, Germany) and SYBR green detection (QuantiFast® SYBR Green; Qiagen), quantitative assessment of Beclin1 cDNA levels were performed. b-Actin PCR was performed serving as endogenous control for normalization. The primers used were: for Beclin1: antisense - 5'-[…]-3' sense - 5'-[…]-3'; and for β-Actin: antisense - 5'-[…]-3', sense-5'-[…]-3'. Relative changes of gene expression were calculated using the comparative ΔΔCT method (Livak and Schmittgen, METHODS 25, 402-408, 2001). Detection of viral RNA by real-time PCR was as recently described (Corman et al. (2014) Journal of Clinical Virology 60: 168-171).
Beclin1 mRNA expression levels were determined by qPCR. HEK cells were treated either with proteasome inhibitor MG132 or with vehicle for 5h and Beclin1 protein levels were determined by Western analysis. Furthermore Co-immunoprecipitations were performed with Beclin1 antibody in HEK cell lysates with ectopic Ub-GFP.

For data set [1], the system named is autophagy pathway markers. The data set can be described thus: Chronic PAR treatment after chronic social defeat stress: autophagy pathway marker protein levels. The data set is classed as in vivo, mice. Conditions: effect of deletion of FKBP51. The protocol: Western blot analysis was performed on eluates from ColPs or with protein extracts from cells or tissue. Protein extracts were obtained by lysing cells or tissue (prelysed as described in the paragraph before) in 62.5 mM Tris, 2% SDS and 10% sucrose, supplemented with protease (Sigma, P2714) and phosphatase (Roche, 04906837001) inhibitor cocktail. Samples were sonicated and heated at 95 °C for 5 min. Proteins were separated by SDS-PAGE and electro-transferred onto nitrocellulose membranes. Blots were placed in Tris-buffered saline, supplemented with 0.05% Tween (Sigma, P2287) and 5% non-fat milk for 1 h at room temperature and then incubated with primary antibody (diluted in TBS/0.05% Tween) overnight at 4 °C. […]

Data set [2] can be described thus: Chronic PAR treatment after chronic social defeat stress: physiological and neuroendocrine parameters. It counts as in vivo, mice. From the text: Initially, wild-type and 51 KOmice were split into 2 x 2 groups (control WT, control FKBP51^-/-, defeat WT, defeat FKBP51^-/-) and subjected to the chronic stress procedure described below. After cessation of the stressor, groups were subdivided into vehicle-treated and paroxetine-treated animals, resulting in 8 groups (n = 7-13 per group). The treatment phase lasted for three weeks. The behavioral tests took place during the last week of the paroxetine treatment.
The CSDS paradigm lasted for 21 days. Briefly, the experimental mice were introduced into the home cage (45 cm x 25 cm) of a dominant resident mouse and defeated shortly after. When the defeat was achieved, the animals were separated by a wire mesh, preventing physical but allowing sensory contact for 24 h. Each day, stressed animals were defeated by another unfamiliar, dominant resident mouse in order to exclude a repeated encounter throughout the experiment. The daily defeat was performed between 11:00 and 16:00 h; varying starting times reduced the predictability of the stressor and therefore minimized a potential habituation effect. […] Both stress and control animals were handled daily during the stress procedure; body weight for all mice was assessed at the beginning of the experiment, after the cessation of the stress period, and on the day of killing. […]

With `Fc1ccc([C@@H]2CCNC[C@H]2COc2ccc3c(c2)OCO3)cc1` [PAR, paroxetine], the “Beclin1 mRNA expression level” value with Beclin1 mRNA was “do not change Beclin1-mRNA”. In data set [1], the “effects on autophagy pathway markers Beclin1, Atg12, pAktS473/Akt and LC3BII/I” value was “abolished”. The “paroxetine-induced body weight increase” value in data set [2] (51 KO versus wild-type mice) is “significantly less affected”; in data set [2] (basal conditions versus stressed animals), “significantly enhanced in mice under basal conditions compared to stressed animals”.
